Data from US9580437B2, “Triazolopyrimidine compounds and uses thereof” (Novartis AG, priority 2014, dated 2017).
pIC50: −log10 of the molar value.

Experiments:
[1] = tested on: H3K27 methylation in G401 cell; assay: ELISA (H3K27 methylation) assay in G401 cells; type: cell-based, human; conditions: read-out: (c) IC50 ELISA Qualified
Procedure: (§1) A 6 μL solution of 3 μM of the peptide substrate H3K27Me0 (histone H3[21-44]-biotin) in reaction buffer was added to initiate each reaction. […] ELISA (H3K27 Methylation) Assay

[2] = target: wild type PRC2 (wtPRC2) complex (Homo sapiens (Human), UniProt O75530); assay: EED LC-MS assay; type: biochemical; conditions: read-out: (b) IC50 EED LC-MS Qualified
Chain of wild type PRC2 (wtPRC2) complex (O75530 whole entry): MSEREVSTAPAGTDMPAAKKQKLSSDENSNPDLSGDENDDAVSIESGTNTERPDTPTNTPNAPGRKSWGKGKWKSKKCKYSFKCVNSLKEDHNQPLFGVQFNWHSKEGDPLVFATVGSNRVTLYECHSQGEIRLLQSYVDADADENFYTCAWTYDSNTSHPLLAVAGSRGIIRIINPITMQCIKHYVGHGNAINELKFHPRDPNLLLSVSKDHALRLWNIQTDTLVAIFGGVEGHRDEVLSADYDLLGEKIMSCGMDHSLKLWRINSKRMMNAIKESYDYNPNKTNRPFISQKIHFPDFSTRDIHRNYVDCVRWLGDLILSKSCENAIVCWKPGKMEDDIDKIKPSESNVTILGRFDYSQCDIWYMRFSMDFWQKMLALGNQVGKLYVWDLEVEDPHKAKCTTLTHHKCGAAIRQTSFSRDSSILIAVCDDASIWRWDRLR
Chain of wild type PRC2 (wtPRC2) complex (Q15910 whole entry partner): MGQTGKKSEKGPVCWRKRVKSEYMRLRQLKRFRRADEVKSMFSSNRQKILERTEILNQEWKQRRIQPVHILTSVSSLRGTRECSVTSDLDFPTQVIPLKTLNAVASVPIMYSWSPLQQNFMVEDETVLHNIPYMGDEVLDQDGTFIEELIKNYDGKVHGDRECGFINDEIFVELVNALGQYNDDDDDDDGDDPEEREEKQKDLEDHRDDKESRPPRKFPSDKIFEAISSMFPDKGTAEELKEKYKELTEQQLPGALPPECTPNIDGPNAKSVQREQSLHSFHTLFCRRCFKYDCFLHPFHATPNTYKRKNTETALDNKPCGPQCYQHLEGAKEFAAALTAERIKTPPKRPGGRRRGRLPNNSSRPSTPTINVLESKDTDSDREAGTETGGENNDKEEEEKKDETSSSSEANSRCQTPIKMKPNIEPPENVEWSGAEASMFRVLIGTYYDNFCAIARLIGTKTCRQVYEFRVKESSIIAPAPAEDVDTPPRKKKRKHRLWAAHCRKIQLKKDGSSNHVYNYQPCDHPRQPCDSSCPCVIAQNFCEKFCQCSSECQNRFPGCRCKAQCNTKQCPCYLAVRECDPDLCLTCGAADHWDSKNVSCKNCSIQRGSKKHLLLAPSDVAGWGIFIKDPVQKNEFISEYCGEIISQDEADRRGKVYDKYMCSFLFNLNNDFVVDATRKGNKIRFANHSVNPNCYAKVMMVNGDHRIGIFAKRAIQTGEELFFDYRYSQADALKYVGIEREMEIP
Chain of wild type PRC2 (wtPRC2) complex (Q15022 whole entry partner): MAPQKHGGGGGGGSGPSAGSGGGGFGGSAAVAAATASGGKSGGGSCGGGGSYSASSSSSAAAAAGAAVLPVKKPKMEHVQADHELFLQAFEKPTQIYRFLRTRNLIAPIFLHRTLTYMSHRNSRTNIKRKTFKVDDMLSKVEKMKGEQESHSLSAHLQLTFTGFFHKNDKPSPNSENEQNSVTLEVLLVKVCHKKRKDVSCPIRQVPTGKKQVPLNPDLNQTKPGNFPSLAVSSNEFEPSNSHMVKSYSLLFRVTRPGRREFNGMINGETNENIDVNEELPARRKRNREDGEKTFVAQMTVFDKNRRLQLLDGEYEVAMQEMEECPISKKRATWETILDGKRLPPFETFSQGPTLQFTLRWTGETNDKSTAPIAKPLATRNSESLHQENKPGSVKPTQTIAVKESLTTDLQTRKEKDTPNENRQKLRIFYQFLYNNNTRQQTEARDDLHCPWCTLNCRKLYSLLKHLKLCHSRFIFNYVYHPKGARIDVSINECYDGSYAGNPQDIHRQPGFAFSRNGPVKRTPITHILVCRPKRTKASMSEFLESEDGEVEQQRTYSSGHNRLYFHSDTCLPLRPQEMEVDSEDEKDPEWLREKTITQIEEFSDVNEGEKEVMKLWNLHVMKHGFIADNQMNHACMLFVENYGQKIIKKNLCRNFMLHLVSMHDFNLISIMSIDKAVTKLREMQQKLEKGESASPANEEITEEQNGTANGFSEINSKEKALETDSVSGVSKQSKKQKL
Procedure: as §1

EED (1-441)-His protein = EED (1-441)-His protein (Homo sapiens (Human), UniProt O75530); assay: EED-H3K27Me3 peptide competition binding assay by AlphaScreen; conditions: read-out: (a) IC50 EED Alphascreen binding Qualified
Chain of EED (1-441)-His protein (O75530 whole entry): as the sequence (O75530 whole entry) above
Source text: EED-H3K27Me3 peptide competition binding assay by AlphaScreen (α-screen)

Cc1ncccc1-c1cnc(NCc2c(F)ccc3c2CCO3)n2cnnc12 [Example 2, N-((5-fluoro-2,3-dihydrobenzofuran-4-yl)methyl)-8-(2-methylpyridin-3-yl)-[1,2,4]triazolo[4,3-c]pyrimidin-5-amine] gave a pIC50 [1] of 8.59.

Fc1ccc2c(c1CNc1ncc(-n3ccnc3)c3nncn13)CCO2 [Example 240, N-((5-fluoro-2,3-dihydrobenzofuran-4-yl)methyl)-8-(1H-imidazol-1-yl)-[1,2,4]triazolo[4,3-c]pyrimidin-5-amine] gave a pIC50 [2] of 7.84 and a pIC50 (EED (1-441)-His protein) of 8.31.

With Fc1ccc2c(c1CNc1ncc(-n3cncn3)c3nncn13)CCO2 [Example 241, N-((5-fluoro-2,3-dihydrobenzofuran-4-yl)methyl)-8-(1H-1,2,4-triazol-1-yl)-[1,2,4]triazolo[4,3-c]pyrimidin-5-amine] the pIC50 [2] was 7.52 and the pIC50 (EED (1-441)-His protein) was 7.95.

Cc1ncccc1-c1cnc(NCc2c(F)ccc3c2C(O)CO3)n2cnnc12 (stereo not shown) [Example 242, 5-fluoro-4-(((8-(2-methylpyridin-3-yl)-[1,2,4]triazolo[4,3-c]pyrimidin-5-yl)amino)methyl)-2,3-dihydrobenzofuran-3-ol] gave a pIC50 [2] of 7.30 and a pIC50 (EED (1-441)-His protein) of 7.86.

OCc1ncccc1-c1cnc(NCc2c(F)ccc3c2C(O)CO3)n2cnnc12 (stereo not shown) [Example 243, 5-fluoro-4-(((8-(2-(hydroxymethyl)pyridin-3-yl)-[1,2,4]triazolo[4,3-c]pyrimidin-5-yl)amino)methyl)-2,3-dihydrobenzofuran-3-ol] gave a pIC50 [2] of 7.23 and a pIC50 (EED (1-441)-His protein) of 7.81.

With Cc1c(-c2cnc(NCc3c(F)ccc4c3C(O)CO4)n3cnnc23)ccc[n+]1[O-] (stereo not shown) [Example 244, 3-(5-(((5-fluoro-3-hydroxy-2,3-dihydrobenzofuran-4-yl)methyl)amino)-[1,2,4]triazolo[4,3-c]pyrimidin-8-yl)-2-methylpyridine 1-oxide] the pIC50 [2] was 7.41 and the pIC50 (EED (1-441)-His protein) was 7.93.

In the case of Cc1ncc(-c2cnc(NCc3c(F)ccc4c3CCO4)n3cnnc23)n1C [Example 245, 8-(1,2-dimethyl-1H-imidazol-5-yl)-N-((5-fluoro-2,3-dihydrobenzofuran-4-yl)methyl)-[1,2,4]triazolo[4,3-c]pyrimidin-5-amine], the pIC50 [2] was 6.65 and the pIC50 (EED (1-441)-His protein) was 7.17.
